Reference: article PMC8397403, “Physiologically Based Pharmacokinetic Modeling of Transporter-Mediated Hepatic Disposition of Imaging Biomarker Gadoxetate in Rats” (Molecular Pharmaceutics, 2021)
Where two headings read alike, the source gives them in different places.

Tested on: plated rat hepatocytes
Experiment: In vitro uptake kinetics of gadoxetate in plated rat hepatocytes (mechanistic hepatocyte model)
Assay type: in vitro ADME
Details: for % passive: CLpassive,u/(CLactive,u + CLpassive,u); for CLactive,u: Vmax/Km,u; for Km: read-out: Km,u
Description: Male adult Sprague-Dawley rats (Charles River, Margate, Kent, UK) were housed in groups of two in individually ventilated cages with free access to food (Chow rat and mouse diet) and fresh drinking water. The designated rat housing facility maintained a controlled temperature (20 ± 3 °C), humidity (40–70%), and 12 h light/dark cycle conditions. All animal protocols were approved by the University of Manchester review committee and adhered to the UK Home Office Animals (Scientific Procedures) Act (1986). Rats (250–300 g) were sacrificed using CO2 overdose followed by cervical dislocation in the morning of the study day. The kinetics experiment, as described below, was performed using n = 4 animals. A minimum of n = 3 was required to explore interanimal variability in kinetic parameters, with surplus hepatocytes also used from an additional animal that was part of a separate project. Primary rat hepatocytes, prepared as described below, were used to evaluate test compound cytotoxicity/effect on hepatocyte attachment (n = 3), preliminary assays to determine uptake assay conditions (n = 4), and for assays that were failed, for example, poor cell viability (n = 6 animals).
Isolation of hepatocytes using ex vivo collagenase perfusion was performed, followed by cell count and viability assessment, as previously described.[34]−[36] Cell preparations with viability <85% were not used for experiments. Hepatocytes were seeded at 240,000 cells per well in collagen I-coated 24-well plates, and incubated for at least 2 h at 37 °C and 95% air/5% CO2 to allow cell attachment to the plate.[36]
Uptake experiments were performed at 37 °C with duplicate incubations per condition, as previously described.[35] Uptake of gadoxetate (Primovist injection solution, Bayer, Germany) was evaluated following incubation (0.5–150 min) at nominal media concentrations of 0.01–10 mM. Extended incubation timepoints (up to 150 min) were selected based on previous publications[35] and existing in-house data to enable characterization of the steady-state intracellular concentration. Uptake of pitavastatin (Sequoia Research Products Ltd, Pangbourne, UK) (0.2 μM) in the absence and presence of a pan-inhibitor of uptake transporters, rifamycin SV (Sigma-Aldrich, Poole, UK) (100 μM), was also evaluated for 0.5–2 min as positive control for functional transporter activity. Following sample preparation including addition of internal standard (Table S1), gadoxetate and pitavastatin in cell samples, and gadoxetate in media samples, were quantified by liquid chromatography–tandem mass spectrometry (LC–MS/MS). LC–MS/MS quantification was performed using selective reaction monitoring (SRM) against calibration standards; only standards within 30% of nominal concentration were included. The protein content of plated rat hepatocytes was measured using the Pierce BCA Protein Assay Kit (Thermo Fisher Scientific, Paisley, UK).
In vitro hepatocyte uptake (i.e., the amount of gadoxetate in cell as quantified by LC–MS/MS) (pmol) at each time point was normalized for cellularity using the measured protein content and assuming that 10^6 hepatocytes contain 1 mg protein.[34] For gadoxetate, the data from each animal were used for simultaneous estimation of in vitro kinetic parameters using a mechanistic hepatocyte model reported previously.[35] It should be noted that CLpassive,u implies nonsaturable clearance equal in both directions under experimental conditions (0.01–10 mM). [drawing 1] 1 where Km,u represents the unbound Michaelis constant (μM); Vmax the maximum transport rate (pmol/min/10^6 cells); and fu,cell the fraction unbound in cell and nonsaturable, bidirectional clearance (CLpassive,u; μL/min/10^6 cells). ccell and cmedium represent concentrations in cell and medium compartments, respectively, and Vcell represents the cell volume.
Intracellular concentrations were calculated assuming a hepatocyte cell volume of 3.9 μL/10^6 cells.[35] […]

## CCOc1ccc(C[C@@H](CN(CCN(CC(=O)[O-])CC(=O)[O-])CC(=O)[O-])N(CC(=O)[O-])CC(=O)[O-])cc1.[Gd+3].[H+].[H+] [gadoxetate]
CLactive,u/(CLactive,u + CLpassive,u), animal 1
  maximum % active: 97%
CLactive,u/(CLactive,u + CLpassive,u), animal 2
  maximum % active: 94%
CLactive,u/(CLactive,u + CLpassive,u), animal 3
  maximum % active: 91%
CLactive,u/(CLactive,u + CLpassive,u), animal 4
  maximum % active: 94%
Animal 1
  % passive: 3%
  CLactive,u: 3.07 μL/min/10^6 cells
  CLpassive,u: 0.091 μL/min/10^6 cells
  Vmax: 350.4 pmol/min/10^6 cells
  Km: 114 µM
Animal 2
  % passive: 6%
  CLactive,u: 3.20 μL/min/10^6 cells
  CLpassive,u: 0.202 μL/min/10^6 cells
  Vmax: 370.9 pmol/min/10^6 cells
  Km: 116 µM
Animal 3
  % passive: 9%
  CLactive,u: 2.78 μL/min/10^6 cells
  CLpassive,u: 0.274 μL/min/10^6 cells
  Vmax: 221.7 pmol/min/10^6 cells
  Km: 79.8 µM
Animal 4
  % passive: 6%
  CLactive,u: 3.20 μL/min/10^6 cells
  CLpassive,u: 0.203 μL/min/10^6 cells
  Vmax: 368.8 pmol/min/10^6 cells
  Km: 115 µM
Average of n = 4 animals
  % passive: 6%
  CLactive,u: 3.06 μL/min/10^6 cells
  CLpassive,u: 0.193 μL/min/10^6 cells
  Vmax: 327.95 pmol/min/10^6 cells
Average of n = 4 animals (CV %)
  Km: 106 µM
Contribution of active saturable uptake to total uptake, average of n = 4 animals
  maximum % active: 94%
Fraction unbound in cell (fu,cell), average of n = 4 animals (CV %)
  fu,liv,cell: 0.648
Fraction unbound in cell (fu,cell), average of n = 4 animals (CV %), listed as Gadoxetate
  fu,liv,cell: 0.65 (24%)
Fraction unbound in cell, animal 1
  fu,liv,cell: 0.759
Fraction unbound in cell, animal 2
  fu,liv,cell: 0.709
Fraction unbound in cell, animal 3
  fu,liv,cell: 0.418
Fraction unbound in cell, animal 4
  fu,liv,cell: 0.704
